Laboratory results taken from patent US9732075B2, “Benzimidazole-proline derivatives” (IDORSIA PHARMACEUTICALS LTD, priority 2012, dated 2017).

Experiments:
human orexin-1 receptor = human orexin-1 receptor (Homo sapiens (Human), UniProt O43613); experiment: In vitro assay: intracellular calcium measurements (FLIPR), antagonistic activity; format: cell-based; conditions: CHO cells expressing human orexin-1 receptor, orexin-A agonist, geometric mean, read-out: IC50 Ox1
Summary of the method: (§1)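 Orexin-A-evoked calcium rise (3 nM final, roughly EC70) was recorded with fluo-4 in recombinant CHO cells, human receptor subtype 1 or 2.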

human orexin-2 receptor = human orexin-2 receptor (Homo sapiens (Human), UniProt O43614); experiment: as above; format: cell-based; conditions: CHO cells expressing human orexin-2 receptor, orexin-A agonist, geometric mean, read-out: IC50 Ox2
Summary of the method: as §1

Sequence of human orexin-2 receptor (O43614 whole entry): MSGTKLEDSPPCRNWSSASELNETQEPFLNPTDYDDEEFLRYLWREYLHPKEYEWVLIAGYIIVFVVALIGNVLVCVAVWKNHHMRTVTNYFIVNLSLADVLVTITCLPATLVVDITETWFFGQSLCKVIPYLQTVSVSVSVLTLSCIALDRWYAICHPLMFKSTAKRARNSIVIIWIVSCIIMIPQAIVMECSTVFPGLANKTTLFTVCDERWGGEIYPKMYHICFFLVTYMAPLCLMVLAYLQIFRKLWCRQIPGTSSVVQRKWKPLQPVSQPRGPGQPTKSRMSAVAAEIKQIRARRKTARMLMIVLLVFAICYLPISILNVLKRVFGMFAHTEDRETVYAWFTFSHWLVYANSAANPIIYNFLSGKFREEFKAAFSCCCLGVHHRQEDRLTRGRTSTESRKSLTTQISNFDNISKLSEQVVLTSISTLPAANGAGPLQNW
Sequence of human orexin-1 receptor (O43613 whole entry): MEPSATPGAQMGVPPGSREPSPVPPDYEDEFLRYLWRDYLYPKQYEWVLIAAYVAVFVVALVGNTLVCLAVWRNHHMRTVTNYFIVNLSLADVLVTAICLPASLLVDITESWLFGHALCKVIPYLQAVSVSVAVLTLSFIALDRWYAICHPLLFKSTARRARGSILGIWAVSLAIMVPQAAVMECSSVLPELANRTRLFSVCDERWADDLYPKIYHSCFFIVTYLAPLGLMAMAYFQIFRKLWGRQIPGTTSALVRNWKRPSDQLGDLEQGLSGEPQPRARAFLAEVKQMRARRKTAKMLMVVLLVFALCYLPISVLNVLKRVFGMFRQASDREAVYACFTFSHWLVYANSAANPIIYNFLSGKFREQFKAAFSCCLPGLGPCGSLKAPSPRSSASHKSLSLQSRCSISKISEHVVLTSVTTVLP

Compound	IC50 (human orexin-1 receptor)	IC50 (human orexin-2 receptor)
Cc1ccc(-c2ccccc2F)c(C(=O)N2CCC[C@@]2(C)c2nc3c(C)c(C)ccc3[nH]2)c1 [Ex. 5.114]	10 nM	21 nM
Cc1ccc(C(=O)N2CCC[C@@]2(C)c2nc3c(C)c(Cl)ccc3[nH]2)c(-n2nccn2)c1 [Ex. 5.38]	4 nM	12 nM
CSc1cccc2nc([C@@H]3CCCN3C(=O)c3cnc(C)nc3-c3cc(Cl)cc(Cl)c3)[nH]c12 [Ex. 1.91]	13 nM	25 nM
C[C@@]1(c2nc3cc(C(F)(F)F)ccc3[nH]2)CCCN1C(=O)c1cc(C#N)ccc1-n1nccn1 [Ex. 5.180]	42 nM	261 nM
Cc1ccc(-c2ncccn2)c(C(=O)N2CC[C@H](C)[C@H]2c2nc3c(C)c(Cl)ccc3[nH]2)c1F [Ex. 4.176]	15 nM	1070 nM
Cc1nc(C(=O)N2CCCC2c2nc3cc(Br)cc(C)c3[nH]2)c(-c2ccccc2)s1 (stereo not shown) [Ex. 1.131]	37 nM	48 nM
Cc1nc(C(=O)N2CCCC2c2nc3cc(C(F)(F)F)ccc3[nH]2)c(-c2cccc(Cl)c2)s1 (stereo not shown) [Ex. 1.94]	42 nM	414 nM
Cc1cc2[nH]c([C@@H]3[C@@H](C)CCN3C(=O)c3cc(Cl)ccc3-c3ccccc3)nc2cc1Cl [Ex. 4.103]	4 nM	178 nM
CSc1ccc2nc([C@@H]3CCCN3C(=O)c3ccc(C)cc3-n3nccn3)[nH]c2c1 [Ex. 1.153]	40 nM	3 nM
Cc1cccc(-c2sc(C)nc2C(=O)N2CC[C@H](C)[C@H]2c2nc3cc(C(F)(F)F)ccc3[nH]2)c1 [Ex. 4.138]	2 nM	1340 nM
C=C1C[C@@H](c2nc3c(C)c(C)ccc3[nH]2)N(C(=O)c2nc(C)sc2-c2ccc(C)c(C)c2)C1 [Ex. 6.47]	6 nM	1 nM
CO[C@H]1CN(C(=O)c2nc(C)ccc2-n2cccn2)C(C)(c2nc3c(C)c(Cl)ccc3[nH]2)C1 (stereo partly shown) [Ex. 3.55]	18 nM	45 nM
Cc1ccc(-c2sc(C)nc2C(=O)N2CC[C@H](C)[C@H]2c2nc3cc(C(F)(F)F)ccc3[nH]2)cc1 [Ex. 4.140]	7 nM	2170 nM
Cc1ccc(-c2nc(C(=O)N3CCC[C@@]3(C)c3nc4c(C)c(Cl)ccc4[nH]3)c(-c3ccc(F)cc3)s2)cc1Cl [Ex. 5.258]	36 nM	6520 nM
Cc1cccc(-c2nc(C(=O)N3CCC[C@@]3(C)c3nc4c(C)c(Cl)ccc4[nH]3)c(-c3ccc(F)cc3)s2)c1 [Ex. 5.230]	21 nM	530 nM
Cc1nc(C(=O)N2CCC[C@H]2c2nc3cc(Cl)ccc3[nH]2)c(-c2cccc(Cl)c2)s1 [Ex. 1.10]	98 nM	248 nM
Cc1ccc(-c2nc(C)sc2C(=O)N2CC[C@H](C)[C@H]2c2nc3c(C)c(Cl)ccc3[nH]2)cc1 [Ex. 4.65]	8 nM	207 nM
CSc1ccc2nc([C@@H]3CCCN3C(=O)c3nc(C)sc3-c3ccc(Br)cc3)[nH]c2c1 [Ex. 1.34]	124 nM	56 nM
Cc1nc(C(=O)N2CCC[C@@]2(C)c2nc3c(C)c(Cl)ccc3[nH]2)c(-c2ccccc2)s1 [Ex. 5.3]	2 nM	4 nM
Cc1ccc(-n2nccn2)c(C(=O)N2CCC[C@@]2(C)c2nc3c(C(F)(F)F)cccc3[nH]2)c1 [Ex. 5.17]	11 nM	76 nM
Cc1ccc(-c2nc(C)sc2C(=O)N2CC[C@H](C)[C@H]2c2nc3cc(C)c(C)cc3[nH]2)cc1 [Ex. 4.88]	11 nM	182 nM
Cc1nc(C(=O)N2CC[C@H](C)[C@H]2c2nc3c(C(F)(F)F)cccc3[nH]2)c(-c2ccc(F)c(F)c2)s1 [Ex. 4.154]	26 nM	4800 nM

Compound	IC50 (human orexin-1 receptor)	IC50 (human orexin-2 receptor)
COc1cccc(-c2nc(C)ncc2C(=O)N2CCC[C@H]2c2nc3cccc(SC)c3[nH]2)c1 [Ex. 1.86]	56 nM	118 nM
Cc1nc(C(=O)N2CCCC2c2nc3cc(C(C)(C)C)ccc3[nH]2)c(-c2ccccc2)s1 (stereo not shown) [Ex. 1.124]	119 nM	42 nM
C[C@@]1(c2nc3cc(C(F)(F)F)ccc3[nH]2)CCCN1C(=O)c1cc(-c2cccc(C#N)c2)ccc1-n1nccn1 [Ex. 5.295]	8 nM	254 nM
Cc1ccc(-n2nccn2)c(C(=O)N2CC[C@H](C)[C@H]2c2nc3cc(C(F)(F)F)ccc3[nH]2)c1 [Ex. 4.29]	30 nM	353 nM
Cc1ccc(-c2cccc(C#N)c2)c(C(=O)N2CCC[C@@]2(C)c2nc3cc(C(F)(F)F)ccc3[nH]2)c1 [Ex. 5.190]	58 nM	119 nM
COc1ccc2nc([C@@H]3CCCN3C(=O)c3cnc(C)nc3-c3ccccc3)[nH]c2c1 [Ex. 1.32]	347 nM	139 nM
Cc1nc(C(=O)N2CCCC2c2nc3c(C)cccc3[nH]2)c(-c2cccc(Cl)c2)s1 (stereo not shown) [Ex. 1.96]	54 nM	43 nM
C[C@@]1(c2nc3c(F)c(F)ccc3[nH]2)CCCN1C(=O)c1cc(F)ccc1-n1nccn1 [Ex. 5.204]	360 nM	900 nM
Cc1nc(C(=O)N2CC[C@H](C)[C@H]2c2nc3cccc(C)c3[nH]2)c(-c2ccccc2)s1 [Ex. 4.4]	11 nM	1170 nM
Cc1ccc(-c2cccc(OC(F)(F)F)c2)c(C(=O)N2CCC[C@@]2(C)c2nc3cc(C(F)(F)F)c(Cl)cc3[nH]2)c1 [Ex. 5.163]	142 nM	401 nM
C=C1CC(c2nc3cc(Cl)c(C(F)(F)F)cc3[nH]2)N(C(=O)c2nc(C3CC3)sc2-c2cccc(C)c2)C1 (racemic) [Ex. 6.97]	14 nM	10 nM
CSc1cccc2nc([C@@H]3CCCN3C(=O)c3nc(C)sc3-c3cccc(Cl)c3Cl)[nH]c12 [Ex. 1.62]	128 nM	197 nM
Cc1cc(C(=O)N2CCC[C@@]2(C)c2nc3cc(OC(F)(F)F)ccc3[nH]2)c(-n2nccn2)cc1C [Ex. 5.235]	5 nM	16.5 nM
Cc1ccc(-c2ccc(C)cc2C(=O)N2CCC[C@@]2(C)c2nc3c(C)c(C)ccc3[nH]2)cc1 [Ex. 5.113]	12 nM	15 nM
Cc1ccc(-c2nc(C(=O)N3CCC[C@@]3(C)c3nc4c(C)c(Cl)ccc4[nH]3)c(-c3ccc(F)cc3)s2)cc1 [Ex. 5.232]	20 nM	2060 nM
COc1ccc(-c2ccc3c(c2)OCO3)c(C(=O)N2CCC[C@@]2(C)c2nc3c(C)c(Cl)ccc3[nH]2)c1F [Ex. 5.304]	19 nM	86 nM
Cc1cc2[nH]c([C@@H]3[C@@H](C)CCN3C(=O)c3c(-c4ncccn4)ccc(C)c3F)nc2cc1Cl [Ex. 4.132]	87 nM	1320 nM
Cc1cc2[nH]c([C@@H]3[C@@H](C)CCN3C(=O)c3c(-c4cccnc4)ccc(C)c3F)nc2cc1Cl [Ex. 4.117]	16 nM	2570 nM
Cc1ccc(-c2cccnc2)c(C(=O)N2CC[C@H](C)[C@H]2c2nc3c(C)c(Cl)ccc3[nH]2)c1 [Ex. 4.163]	20 nM	4400 nM
Cc1cc(C)c2nc(C3CCCN3C(=O)c3nc(C)sc3-c3ccccc3)[nH]c2c1 (stereo not shown) [Ex. 1.127]	33 nM	22 nM
Cc1ccc(-c2cccc(C#N)c2)c(C(=O)N2CCC[C@@]2(C)c2nc3cc(C(F)(F)F)c(Cl)cc3[nH]2)c1 [Ex. 5.159]	23 nM	37 nM
CSc1ccc2nc([C@@H]3CCCN3C(=O)c3cc(C(F)(F)F)ccc3-n3nccn3)[nH]c2c1 [Ex. 1.151]	763 nM	110 nM
